Measured values: US5922681A, “Endothelin antagonists” (Warner-Lambert Company, priority 1992, dated 1999)
Values joined by “and” are separate entries in the source; they are usually repeats but may differ in a detail not shown here. Equal entries are not always repeated.

Columns and labels:
[1] = target: endothelin receptor (Rat Heart); assay: [125I]-ET-1 receptor binding, Rat Heart
Protocol: (§1) The compounds of Formula I are valuable antagonists of endothelin. […] Compounds of Formula I were tested for their ability to inhibit [^125 I]-ET-1([^125 I]-Endothelin-1) binding in a receptor assay according to the following procedures Doherty, A. M., et al, J. Cardiovascul. Pharmacol. 17(Suppl 7):S59-61 (1991) and Doherty, A. M., et al, Bio. Org.

[2] = target: endothelin receptor (Human Placenta); assay: [125I]-ET-1 receptor binding, Human Placenta
Protocol: as §1

[3] = target: T1, ETB (rat cerebellar membranes) (Rattus norvegicus, UniProt P21451); assay: Endothelin receptor binding assay-B (ERBA-B), [125I]-ET-1 binding in rat cerebellar membranes; conditions: for IC50: rat cerebellar membranes, [125I]-ET-1 25 pM; for Selectivity ETA / ETB from Table I: ERBA-A versus ERBA-B
T1 construct: thaw one aliquot of frozen rat cerebellar membranes; from tissue; host or cells: rat cerebellar membranes
T1 sequence (P21451 27-442): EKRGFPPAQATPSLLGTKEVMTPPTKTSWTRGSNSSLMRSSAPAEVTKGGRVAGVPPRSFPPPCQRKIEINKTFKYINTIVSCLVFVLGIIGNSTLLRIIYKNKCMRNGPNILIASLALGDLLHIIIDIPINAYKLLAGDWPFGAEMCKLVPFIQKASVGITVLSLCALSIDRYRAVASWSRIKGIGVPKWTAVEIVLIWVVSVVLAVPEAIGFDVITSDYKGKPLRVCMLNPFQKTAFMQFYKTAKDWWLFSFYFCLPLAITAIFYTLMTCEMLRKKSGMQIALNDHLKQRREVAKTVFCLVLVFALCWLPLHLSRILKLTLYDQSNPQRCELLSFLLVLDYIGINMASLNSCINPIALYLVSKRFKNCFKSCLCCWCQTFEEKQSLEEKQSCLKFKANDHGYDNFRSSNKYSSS
Protocol: as §1, with “Org. Med. Chem. Lett. in press (1992):” for “Org.”
ENDOTHELIN RECEPTOR BINDING ASSAY-B (ERBA-B) [^125 I]-ET-1 BINDING IN RAT CEREBELLAR MEMBRANES
The tissue is made up of 20 mM tris(hydroxy-methyl)aminomethane hydrochloride (Trizma) buffer, 2 mM ethylenediaminetetra acetate, 100 μM phenylmethylsulfonyl fluoride.
First, thaw one aliquot of frozen rat cerebellar membranes (2 mg protein in 0.5 mL). Next, add 0.5 mL membrane aliquot to 4.5 mL cold tissue buffer, polytron at 7,500 revolutions per minute for 10 seconds. Finally, dilute tissue suspension 1/100 (0.1 mL suspension+9.9 mL tissue buffer), polytron again, and place ice.
Medium 199 with Hank's salts plus 25 mM Hepes+1 mg/mL bovine serum albumin.
Amersham [^125 I]-ET-1 (aliquots of 2×10^6 cpm per […] aliquot of [^125 I]-ET-1 with 5.2 mL dilution buffer, place on ice until use (final concentration will be 20,000 cpm per tube, or 25 pM).
Add 50 μL each of cold [^125 ]-ET-1 and competing ligand to tubes on ice. Mix in 150 μL of tissue to each tube, vortex briefly, then tap to force all liquids to bottom (total assay volume=250 μL). Then place the tubes in a 37° C. water bath for 2 hours.
Add 2.5 mL cold wash buffer (50 mM Trizma buffer) to each tube, filter, and then wash tube with additional 2.5 mL wash buffer and add to filter. Finally, wash filters with an additional 2.5 mL of cold wash buffer.
Count filters for radioactivity in gamma counter.

[4] = target: T2, ETA (rabbit renal artery vascular smooth muscle cells) (Oryctolagus cuniculus, UniProt A5A8K3); assay: Endothelin receptor binding assay-A (ERBA-A), intact cell binding of [125I]-ET-1; conditions: for IC50: rabbit renal artery vascular smooth muscle cells, [125I]-ET-1 25 pM
T2 construct: The cells used were rabbit renal artery vascular smooth muscle cells; endogenous in cells; host or cells: rabbit renal artery vascular smooth muscle cells
T2 sequence (A5A8K3 21-427): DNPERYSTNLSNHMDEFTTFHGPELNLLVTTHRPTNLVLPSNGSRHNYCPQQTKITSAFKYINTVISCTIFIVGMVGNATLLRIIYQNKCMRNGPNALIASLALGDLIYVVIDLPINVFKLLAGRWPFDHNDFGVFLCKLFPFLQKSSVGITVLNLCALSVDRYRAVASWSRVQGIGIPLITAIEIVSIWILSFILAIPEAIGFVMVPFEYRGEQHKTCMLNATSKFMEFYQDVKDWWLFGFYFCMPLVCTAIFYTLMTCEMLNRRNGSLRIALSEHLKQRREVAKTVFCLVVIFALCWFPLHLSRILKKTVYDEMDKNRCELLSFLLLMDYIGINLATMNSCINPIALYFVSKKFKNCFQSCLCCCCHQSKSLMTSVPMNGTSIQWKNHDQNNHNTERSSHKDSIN
Protocol: as §1, with “Org. Med. Chem. Lett. in press (1992):” for “Org.”
ENDOTHELIN RECEPTOR BINDING ASSAY-A (ERBA-A) INTACT CELL BINDING OF [^125 I]-ET-1
The cells used were rabbit renal artery vascular smooth muscle cells grown in a 48-well dish (1 cm^2) (confluent cells).
The growth media was Dulbeccos Modified Eagles/Ham's F12 which contained 10% fetal bovine serum and antibiotics (penicillin/streptomycin/fungizone).
The assay buffer was a medium 199 containing Hanks salts and 25 mM Hepes buffer (Gibco 380-2350AJ), supplemented with penicillin/streptomycin/fungizone (0.5%) and bovine serum albumin (1 mg/mL).
Amersham radioiodinated endothelin-1 [^125 I]-ET-1 was used at final concentration of 20,000 cpm/0.25 mL (25 pM).
Second, remove the assay buffers, place the dish on ice, and add 150 μL of cold assay buffer described above to each well. Third, add 50 μL each of cold [^125 I]-ET-1 and competing ligand to the solution (at the same time if possible). Next, place dish in a 37° C. water bath for about 2 hours and gently agitate the dish every 15 minutes. Discard the radioactive incubation mixture in the sink and wash wells three times with […] of cold phosphate buffered saline. Last, add […] of 0.25 molar sodium hydroxide, agitate for 1 hour on a rotator, and then transfer the sodium hydroxide extract to gamma counting tubes and count the radioactivity.

ETB = conditions: isolated, endothelium-intact porcine pulmonary arteries; cited from earlier work

C[C@](Cc1c[nH]c2ccccc12)(NC(=O)OC1C2CC3CC(C2)CC1C3)C(=O)NC(CC(=O)O)Cc1ccccc1 (stereo partly drawn) [Compound 5, N-[α-methyl-N-[(tricyclo[3.3.1.1^3,7]dec-2-yloxy)carbonyl]-D-tryptophyl]-D-3-(phenylmethyl)-β-alanine]
IC50 [1]: 34.5 µM
IC50 [2]: 3.84 µM

Cc1[nH]c2ccccc2c1C[C@@H](NC(=O)OC1C2CC3CC(C2)CC1C3)C(=O)N[C@@H](Cc1ccccc1)C(=O)NCC(=O)O (stereo partly drawn) [Compound 10, N-[2-methyl-N-[(tricyclo[3.3.1.1^3,7]dec-2-yloxy)carbonyl]-D-tryptophyl]-L-phenylalanyl-glycine]
inhibition at 10 µM [3]: 39.7%
inhibition at 10 µM [4]: 45%

ET[8-21,11,15-Ala]
Vasorelaxation (ETB): caused vasorelaxation

CC(Cc1c[nH]c2ccccc12)(NC(=O)OC1C2CC3CC(C2)CC1C3)C(=O)NC(CC(=O)O)Cc1ccc([N+](=O)[O-])cc1 (stereo not drawn) [Compound 11, [R-(R*,S*)]-β-[[3-(1H-indol-3-yl)-2-methyl-1-oxo-2-[[(tricyclo[3.3.1.1^3,7]dec-2-yloxy)carbonyl]-amino]propyl]amino]-4-nitrobenzenebutanoicacid]
ERBA-B % inhibition at 10 μM [3]: 51.4%
ERBA-A % inhibition at 10 μM [4]: 47.7%

CC(Cc1c[nH]c2ccccc12)(NC(=O)OC1C2CC3CC(C2)CC1C3)C(=O)NC(C=CC=CC(=O)O)Cc1ccccc1 (stereo not drawn) [Compound 14, [R-[R*,S*-(E,E)]]-6-[[3-(1H-indol-3-yl)-2-methyl-1-oxo-2-[[(tricyclo[3.3.1.1^3,7]dec-2-yloxy)-carbonyl]amino]propyl]amino]-7-phenyl-2,4-heptadienoic acid]
ERBA-B % inhibition at 10 μM [3]: 39.8%
ERBA-A % inhibition at 10 μM [4]: 54.3%

CC(Cc1c[nH]c2ccccc12)(NC(=O)OC1C2CC3CC(C2)CC1C3)C(=O)NC(CCCCC(=O)O)Cc1ccccc1 (stereo not drawn) [Compound 15, [R-(R*,S*)]-ε-[[3-(1H-indol-3-yl)-2-methyl-1-oxo-2-[[(tricyclo[3.3.1.1^3,7]dec-2-yloxy)carbonyl]-amino]propyl]amino]benzeneheptanoic acid]
ERBA-B % inhibition at 10 μM [3]: 36.5%
ERBA-A % inhibition at 10 μM [4]: 51.6%

CC(Cc1c[nH]c2ccccc12)(NC(=O)OC1C2CC3CC(C2)CC1C3)C(=O)NC(CCC(=O)O)Cc1ccccc1 (stereo not drawn) [Compound 7, [R-(R*,S*)]-γ-[[3-(1H-indol-3-yl)-2-methyl-1-oxo-2-[[(tricyclo[3.3.1.1^3,7]dec-2-yloxy)carbonyl]-amino]propyl]amino]benzenepentanoic acid]
IC50 [3]: 870 nM

CC(Cc1c[nH]c2ccccc12)(NC(=O)OC1C2CC3CC(C2)CC1C3)C(=O)NC(C=CC(=O)O)Cc1ccccc1 (stereo not drawn) [Compound 6, [R-[R*,S*-(E)]]-4-[[3-(1H-indol-3-yl)-2-methyl-1-oxo-2-[[(tricyclo[3.3.1.1^3,7]dec-2-yloxy)carbonyl]-amino]propyl]amino]-5-phenyl-2-pentenoic acid]
IC50 [3]: 870 nM

CC(Cc1c[nH]c2ccccc12)(NC(=O)OC1C2CC3CC(C2)CC1C3)C(=O)NC(CC(=O)O)Cc1ccccc1 (stereo not drawn) [Compound 3, [R-(R*,S*)]-β-[[3-(1H-indol-3-yl)-2-methyl-1-oxo-2-[[(tricyclo[3.3.1.1^3,7]dec-2-yloxy)carbonyl]-amino]propyl]amino]benzenebutanoic acid]
IC50 [1]: 7.91 µM
IC50 [2]: 0.96 µM

CC(Cc1c[nH]c2ccccc12)(NC(=O)OC1C2CC3CC(C2)CC1C3)C(=O)N(CCc1ccccc1)CC(=O)O (racemic) [Compound 13, (±)-N-[3-(1H-indol-3-yl)-2-methyl-1-oxo-2-[[(tricyclo[3.3.1.1^3,7]dec-2-yloxy)carbonyl]amino]-propyl]-N-(2-phenylethyl)glycine]
inhibition at 10 µM [3]: 72.3%
Selectivity ETA / ETB from Table I [3]: selective for ETB
IC50 [3]: 4000 nM
inhibition at 10 µM [4]: -0.2%

CC(Cc1c[nH]c2ccccc12)(NC(=O)OC1C2CC3CC(C2)CC1C3)C(=O)NC(CSCC(=O)O)Cc1ccccc1 (stereo not drawn) [Compound 2, [R-(R*,S*)]-[[2-[[3-(1H-indol-3-yl)-2-methyl-1-oxo-2-[[(tricyclo[3.3.1.1^3,7]dec-2-yloxy)carbonyl]-amino]propyl]amino]-3-phenylpropyl]thio]acetic acid]
IC50 [1]: 9.06 µM
IC50 [2]: 9.88 µM

C[C@H]1CCCC[C@@H]1OC(=O)N[C@](C)(Cc1c[nH]c2ccccc12)C(=O)N[C@H](CC(=O)O)Cc1ccccc1 (relative stereo) [Compound 1, (1S-trans)-N-[α-methyl-N-[[(2-methyl-cyclohexyl)-oxy]carbonyl]-D-tryptophyl]-L-3-(phenylmethyl)-β-alanine]
IC50 [1]: 9.25 µM
IC50 [2]: 0.72 µM
IC50 [3]: 1500 nM
IC50 [4]: 46000 nM

C[C@](Cc1c[nH]c2ccccc12)(NC(=O)OC1C2CC3CC(C2)CC1C3)C(=O)NC(CC(=O)O)Cc1ccc(N)cc1 (stereo partly drawn) [Compound 9, L-3-[(4-aminophenyl)methyl]-N-[α-methyl-N-[(tricyclo[3.3.1.1^3,7]dec-2-yloxy)carbonyl]-D-tryptophyl]-β-alanine]
ERBA-B % inhibition at 10 μM [3]: 9.4%
ERBA-A % inhibition at 10 μM [4]: 33.5%

C[C@](Cc1c[nH]c2ccccc12)(NC(=O)OC1C2CC3CC(C2)CC1C3)C(=O)N(CCc1ccccc1)CC(=O)O (stereo partly drawn) [Compound 12, N-[α-methyl-N-[(tricyclo[3.3.1.1^3,7]dec-2-yloxy)carbonyl]-D-tryptophyl]-N-(2-phenylethyl)-glycine]
inhibition at 10 µM [3]: 86%
Selectivity ETA / ETB from Table I [3]: selective for ETB
IC50 [3]: 1800 nM
inhibition at 10 µM [4]: 4.1%

C[C@](Cc1c[nH]c2ccccc12)(NC(=O)OC1C2CC3CC(C2)CC1C3)C(=O)N(CCC(=O)O)CCc1ccccc1 (stereo partly drawn) [Compound 8, (R)-3-[[3-(1H-indol-3-yl) -2-methyl-1-oxo-2-[[(tricyclo[3.3.1.1^3,7]dec-2-yloxy)carbonyl]amino]-propyl](2-phenylethyl)amino]propanoic acid]
IC50 [3]: 910 nM and 1800 nM
inhibition at 10 µM [4]: 25%

C[C@](Cc1c[nH]c2ccccc12)(NC(=O)NC1CCCCC1)C(=O)O [Compound 16, N-[(cyclohexylamino)carbonyl]-α-methyl-D-tryptophan]
IC50 [3]: > 10000 nM
IC50 [4]: 1500 nM
